# According to PubChem BioAssay (NCI):
#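 Interpolation was linear, between the two tested concentrations surrounding the appropriate level; five concentrations were tested over 48 hours in 96-well plates. The concentration for 50% growth inhibition is given as GI50. At the TGI there is no net growth.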
# Tests used:
# Assay in all cases: growth of human tumour cells (NCI), 48 h
# HCT-15 colon = system: HCT-15 colon
# OVCAR-5 ovarian = system: OVCAR-5 ovarian
# K-562 leukemia = system: K-562 leukemia
# OVCAR-8 ovarian = system: OVCAR-8 ovarian
# KM12 colon = system: KM12 colon
# HOP-92 NSCLC = system: HOP-92 NSCLC
# SN12C renal = system: SN12C renal
# 786-0 renal = system: 786-0 renal
# MCF7 breast = system: MCF7 breast
# HCC-2998 colon = system: HCC-2998 colon
# UACC-62 melanoma = system: UACC-62 melanoma
# NCI/ADR-RES ovarian = system: NCI/ADR-RES ovarian
# SNB-75 CNS = system: SNB-75 CNS
# M14 melanoma = system: M14 melanoma
# LOX IMVI melanoma = system: LOX IMVI melanoma
# OVCAR-4 ovarian = system: OVCAR-4 ovarian
# HL-60(TB) leukemia = system: HL-60(TB) leukemia
# UO-31 renal = system: UO-31 renal
# PC-3 prostate = system: PC-3 prostate
# SF-268 CNS = system: SF-268 CNS
# SR leukemia = system: SR leukemia
# TK-10 renal = system: TK-10 renal
# NCI-H460 lung = system: NCI-H460 lung
# SW-620 colon = system: SW-620 colon
# NCI-H23 lung = system: NCI-H23 lung
# CCRF-CEM leukemia = system: CCRF-CEM leukemia
# MOLT-4 leukemia = system: MOLT-4 leukemia
# EKVX NSCLC = system: EKVX NSCLC
# SK-MEL-28 melanoma = system: SK-MEL-28 melanoma
# SF-539 CNS = system: SF-539 CNS
# A549 NSCLC = system: A549 NSCLC
# CAKI-1 renal = system: CAKI-1 renal
# NCI-H226 lung = system: NCI-H226 lung
# IGROV1 ovarian = system: IGROV1 ovarian
# BT-549 breast = system: BT-549 breast
# HT29 colon = system: HT29 colon
# OVCAR-3 ovarian = system: OVCAR-3 ovarian
# SNB-19 CNS = system: SNB-19 CNS
# RXF 393 renal = system: RXF 393 renal
# ACHN renal = system: ACHN renal
# RPMI-8226 leukemia = system: RPMI-8226 leukemia
# A498 renal = system: A498 renal
# U251 CNS = system: U251 CNS
# HS 578T breast = system: HS 578T breast
# SK-OV-3 ovarian = system: SK-OV-3 ovarian
# SK-MEL-5 melanoma = system: SK-MEL-5 melanoma
# SF-295 CNS = system: SF-295 CNS
# MDA-MB-435 = system: MDA-MB-435
# MALME-3M melanoma = system: MALME-3M melanoma
# UACC-257 melanoma = system: UACC-257 melanoma
# NCI-H522 lung = system: NCI-H522 lung
# HCT-116 colon = system: HCT-116 colon
# COLO 205 colon = system: COLO 205 colon
# MDA-MB-231 breast = system: MDA-MB-231 breast
# SK-MEL-2 melanoma = system: SK-MEL-2 melanoma
# HOP-62 NSCLC = system: HOP-62 NSCLC
# DU-145 prostate = system: DU-145 prostate
smiles,measurement,setting,value
CCNCCNC(=O)c1ccc(I)cc1,TGI,HCT-15 colon,> 100 µM
same,TGI,OVCAR-5 ovarian,> 100 µM
same,TGI,K-562 leukemia,> 100 µM
same,TGI,OVCAR-8 ovarian,> 100 µM
same,TGI,KM12 colon,> 100 µM
same,TGI,HOP-92 NSCLC,> 100 µM
same,TGI,SN12C renal,> 100 µM
same,TGI,786-0 renal,> 100 µM
same,TGI,MCF7 breast,> 100 µM
same,TGI,HCC-2998 colon,> 100 µM
same,TGI,UACC-62 melanoma,> 100 µM
same,TGI,NCI/ADR-RES ovarian,> 100 µM
same,TGI,SNB-75 CNS,> 100 µM
same,TGI,M14 melanoma,> 100 µM
same,TGI,LOX IMVI melanoma,> 100 µM
same,TGI,OVCAR-4 ovarian,> 100 µM
same,TGI,HL-60(TB) leukemia,> 100 µM
same,TGI,UO-31 renal,> 100 µM
same,TGI,PC-3 prostate,> 100 µM
same,TGI,SF-268 CNS,> 100 µM
same,TGI,SR leukemia,> 100 µM
same,TGI,TK-10 renal,> 100 µM
same,TGI,NCI-H460 lung,> 100 µM
same,TGI,SW-620 colon,> 100 µM
same,TGI,NCI-H23 lung,> 100 µM
same,TGI,CCRF-CEM leukemia,> 100 µM
same,TGI,MOLT-4 leukemia,> 100 µM
same,TGI,EKVX NSCLC,> 100 µM
same,TGI,SK-MEL-28 melanoma,> 100 µM
same,TGI,SF-539 CNS,> 100 µM
same,TGI,A549 NSCLC,> 100 µM
same,TGI,CAKI-1 renal,> 100 µM
same,TGI,NCI-H226 lung,> 100 µM
same,TGI,IGROV1 ovarian,> 100 µM
same,TGI,BT-549 breast,> 100 µM
same,TGI,HT29 colon,> 100 µM
same,TGI,OVCAR-3 ovarian,> 100 µM
same,TGI,SNB-19 CNS,> 100 µM
same,TGI,RXF 393 renal,> 100 µM
same,TGI,ACHN renal,> 100 µM
same,TGI,RPMI-8226 leukemia,> 100 µM
same,TGI,A498 renal,> 100 µM
same,TGI,U251 CNS,> 100 µM
same,TGI,HS 578T breast,> 100 µM
same,TGI,SK-OV-3 ovarian,> 100 µM
same,TGI,SK-MEL-5 melanoma,> 100 µM
CCOC(=O)Oc1c(OC)cc(C(=O)c2ccc(OC)c(O)c2OC)cc1OC,GI50,SF-295 CNS,0.524 µM
same,TGI,SF-295 CNS,49.7 µM
same,GI50,HCT-15 colon,0.42 µM
same,TGI,HCT-15 colon,> 100 µM
same,GI50,OVCAR-5 ovarian,5.96 µM
same,TGI,OVCAR-5 ovarian,> 100 µM
same,GI50,K-562 leukemia,0.416 µM
same,TGI,K-562 leukemia,> 100 µM
same,GI50,OVCAR-8 ovarian,3.36 µM
same,TGI,OVCAR-8 ovarian,> 100 µM
same,GI50,KM12 colon,0.52 µM
same,TGI,KM12 colon,> 100 µM
same,GI50,HOP-92 NSCLC,0.727 µM
same,TGI,HOP-92 NSCLC,> 100 µM
same,GI50,SN12C renal,2.79 µM
same,TGI,SN12C renal,> 100 µM
same,GI50,786-0 renal,0.475 µM
same,TGI,786-0 renal,> 100 µM
same,GI50,MCF7 breast,0.516 µM
same,TGI,MCF7 breast,> 100 µM
same,GI50,HCC-2998 colon,2.31 µM
same,TGI,HCC-2998 colon,> 100 µM
same,GI50,UACC-62 melanoma,3.82 µM
same,TGI,UACC-62 melanoma,> 100 µM
same,GI50,MDA-MB-435,0.288 µM
same,TGI,MDA-MB-435,1.01 µM
same,GI50,NCI/ADR-RES ovarian,0.378 µM
same,TGI,NCI/ADR-RES ovarian,6.97 µM
same,GI50,MALME-3M melanoma,0.686 µM
same,TGI,MALME-3M melanoma,> 100 µM
same,GI50,UACC-257 melanoma,> 100 µM
same,TGI,UACC-257 melanoma,> 100 µM
same,GI50,SNB-75 CNS,0.534 µM
same,TGI,SNB-75 CNS,> 100 µM
same,GI50,M14 melanoma,0.319 µM
same,TGI,M14 melanoma,> 100 µM
same,GI50,LOX IMVI melanoma,0.557 µM
same,TGI,LOX IMVI melanoma,> 100 µM
same,GI50,OVCAR-4 ovarian,6.04 µM
same,TGI,OVCAR-4 ovarian,> 100 µM
same,GI50,UO-31 renal,3.54 µM
same,TGI,UO-31 renal,> 100 µM
same,GI50,NCI-H522 lung,0.311 µM
same,TGI,NCI-H522 lung,1.99 µM
same,GI50,PC-3 prostate,0.562 µM
same,TGI,PC-3 prostate,> 100 µM
same,GI50,SF-268 CNS,10.7 µM
same,TGI,SF-268 CNS,> 100 µM
same,GI50,SR leukemia,0.381 µM
same,TGI,SR leukemia,> 100 µM
same,GI50,TK-10 renal,> 100 µM
same,TGI,TK-10 renal,> 100 µM
same,GI50,NCI-H460 lung,1.78 µM
same,TGI,NCI-H460 lung,> 100 µM
same,GI50,SW-620 colon,0.489 µM
same,TGI,SW-620 colon,> 100 µM
same,GI50,NCI-H23 lung,2.29 µM
same,TGI,NCI-H23 lung,> 100 µM
same,GI50,HCT-116 colon,0.44 µM
same,TGI,HCT-116 colon,12.8 µM
same,GI50,CCRF-CEM leukemia,0.41 µM
same,TGI,CCRF-CEM leukemia,> 100 µM
same,GI50,MOLT-4 leukemia,0.492 µM
same,TGI,MOLT-4 leukemia,> 100 µM
same,GI50,EKVX NSCLC,2.54 µM
same,TGI,EKVX NSCLC,> 100 µM
same,GI50,SK-MEL-28 melanoma,2.78 µM
same,TGI,SK-MEL-28 melanoma,> 100 µM
same,GI50,SF-539 CNS,0.637 µM
same,TGI,SF-539 CNS,5.83 µM
same,GI50,A549 NSCLC,3.96 µM
same,TGI,A549 NSCLC,> 100 µM
same,GI50,CAKI-1 renal,1.81 µM
same,TGI,CAKI-1 renal,> 100 µM
same,GI50,COLO 205 colon,12.5 µM
same,TGI,COLO 205 colon,63.5 µM
same,GI50,MDA-MB-231 breast,3.31 µM
same,TGI,MDA-MB-231 breast,> 100 µM
same,GI50,NCI-H226 lung,4.56 µM
same,TGI,NCI-H226 lung,40.7 µM
same,GI50,IGROV1 ovarian,3.86 µM
same,TGI,IGROV1 ovarian,> 100 µM
same,GI50,BT-549 breast,0.465 µM
same,TGI,BT-549 breast,6.97 µM
same,GI50,SK-MEL-2 melanoma,1.79 µM
same,TGI,SK-MEL-2 melanoma,> 100 µM
same,GI50,HOP-62 NSCLC,0.962 µM
same,TGI,HOP-62 NSCLC,> 100 µM
same,GI50,HT29 colon,3.13 µM
same,TGI,HT29 colon,22.8 µM
same,GI50,OVCAR-3 ovarian,0.414 µM
same,TGI,OVCAR-3 ovarian,> 100 µM
same,GI50,DU-145 prostate,0.885 µM
same,TGI,DU-145 prostate,> 100 µM
same,GI50,SNB-19 CNS,0.821 µM
same,TGI,SNB-19 CNS,> 100 µM
same,GI50,ACHN renal,1.95 µM
same,TGI,ACHN renal,> 100 µM
same,GI50,RPMI-8226 leukemia,0.456 µM
same,TGI,RPMI-8226 leukemia,> 100 µM
same,GI50,A498 renal,3.19 µM
same,TGI,A498 renal,17 µM
same,GI50,U251 CNS,0.947 µM
same,TGI,U251 CNS,> 100 µM
same,GI50,SK-OV-3 ovarian,2.88 µM
same,TGI,SK-OV-3 ovarian,> 100 µM
same,GI50,SK-MEL-5 melanoma,0.475 µM
same,TGI,SK-MEL-5 melanoma,55.6 µM
CC(C)c1ccc(Cn2ccc3c4c(N)nc(NC5CC5)nc4ccc32)cc1,GI50,TK-10 renal,1.23 µM
same,TGI,TK-10 renal,2.57 µM
same,GI50,NCI-H460 lung,0.198 µM
same,TGI,NCI-H460 lung,1.07 µM
same,GI50,SW-620 colon,0.326 µM
same,TGI,SW-620 colon,1.32 µM
same,GI50,DU-145 prostate,0.399 µM
same,TGI,DU-145 prostate,1.38 µM
same,GI50,RXF 393 renal,0.172 µM
same,TGI,RXF 393 renal,0.58 µM
